Earlier results in Sander's compilation of Henry's law constants (doi:10.1021/es00169a013).

Assay: Henry solubility constant Hcp at 298.15 K (mol/(m3 Pa))
Settings: reference: Dunnivant et al. (1988); cited value

In the case of `Clc1ccc(-c2ccc(Cl)cc2)cc1` [4,4'-dichlorobiphenyl], the “Henry solubility constant Hcp” value is given as 0.068.

In the case of `Clc1cc(Cl)c(-c2cc(Cl)c(Cl)cc2Cl)cc1Cl` [2,2',4,4',5,5'-hexachlorobiphenyl], the “Henry solubility constant Hcp” value is listed as 0.08.

For `Clc1cc(Cl)c(-c2c(Cl)cc(Cl)cc2Cl)c(Cl)c1` [2,2',4,4',6,6'-hexachlorobiphenyl], the “Henry solubility constant Hcp” value is given as 0.086.

In the case of `Clc1cccc(Cl)c1-c1c(Cl)cccc1Cl` [2,2',6,6'-tetrachlorobiphenyl], the “Henry solubility constant Hcp” value is given as 0.067.
